Source: patent publication US12286437B2, “Cardiac sarcomere inhibitors” (Cytokinetics, Inc., priority 2021, dated 2025)

Assays:
CYP2C8 = target: T1, CYP2C8 (Homo sapiens, UniProt P10632); assay: Time-dependent inhibition of CYP2C8 in human liver microsomes; assay type: in vitro ADME; conditions: for (% Activity NADPH T0)/(% Activity NADPH T30): fold change
T1 construct: Pooled human microsomes and selective CYP probe substrates were used; from tissue; host or cells: pooled human liver microsomes
T1 sequence (P10632 1-490): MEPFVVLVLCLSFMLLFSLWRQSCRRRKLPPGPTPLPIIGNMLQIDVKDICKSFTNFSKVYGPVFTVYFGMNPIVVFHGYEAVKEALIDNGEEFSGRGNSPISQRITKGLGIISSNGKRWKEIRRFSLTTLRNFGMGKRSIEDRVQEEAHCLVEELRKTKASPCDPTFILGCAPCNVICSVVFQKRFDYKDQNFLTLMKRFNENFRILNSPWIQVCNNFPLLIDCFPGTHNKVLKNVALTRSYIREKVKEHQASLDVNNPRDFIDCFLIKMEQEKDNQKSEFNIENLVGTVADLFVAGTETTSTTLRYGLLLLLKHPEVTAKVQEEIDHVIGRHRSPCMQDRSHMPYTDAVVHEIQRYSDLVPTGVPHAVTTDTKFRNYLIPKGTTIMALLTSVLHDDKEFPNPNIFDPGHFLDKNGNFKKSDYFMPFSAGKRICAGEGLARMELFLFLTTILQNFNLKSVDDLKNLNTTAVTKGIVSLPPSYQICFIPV
Protocol: (§1) An assessment of the time-dependent Inhibitory Potential of the test compounds against Principal Human Cytochrome P450 Isozymes using Human Liver Microsomes was also carried out using standard methods (Grimm et al, Drug Metab. Dispos., July; 37(7):1355-70. doi: 10.1124/dmd.109.026716, 2009). Pooled human microsomes and selective CYP probe substrates were used for in vitro assessment of test compounds at 25 and 50 μM as time-dependent inhibitors of […] human hepatic cytochrome P450 isozymes (CYP1A2, 2B6, 2C9, 2C19, 2D6, and 3A4). LC-MS/MS was used to quantify metabolite formation. The inhibition of each P450 enzyme in human liver microsomes was measured as the percentage decrease in the activity of marker metabolite formation as measured by LC-MS/MS compared to non-inhibited controls (=100% activity) at time zero and after 30 minutes incubation. The occurrence of any time dependent inhibition was then expressed as the fold change in enzyme activity at time zero relative to the activity after 30 minutes incubation.

[1] = Mouse single dose pharmacokinetics; assay type: in vivo, C57BL/6 mice; conditions: male, C57BL/6, plasma, 0.5 mg/kg, IV
Protocol: Male C57BL/6 mice (18-25 g, 6-8 weeks old) were obtained from Zhejiang Vital River Laboratory Animal Technology Co., Ltd. All animals for IV administration had free access to food and water. The IV dosing was performed through tail vein. The IV dose solution for the Test Articles was prepared in 10% DMA/20% PG/70% HPβCD solution (40% w/v aqueous HPβCD) at a concentration of 0.1 mg/mL. The oral dosing suspension was prepared by suspending Test Article in 0.5% HPMC/0.1% Tween 80 in water at a concentration 0.2 mg/mL. Concentrations of IV and PO doses were measured at the end of the study. Pharmacokinetic (PK) parameters were calculated using the nominal dose values if the measured values were within 20% of the nominal values. A group of 15 mice received the IV dose where the volume was 5 mL/kg. Another group of 15 mice received by oral gavage of Test Article at 1 mg/kg. The oral dose volume was 5 mL/kg. Sparse blood samples were collected from groups of three mice via retro-orbital bleeding, placed into a K2EDTA microtainer tube and maintained on ice until centrifugation to obtain plasma. Each designated group of mice were bled at two-time points. The time points were predose (PO only), 5 (IV only), 15, 30 minutes, 1, 2, 4, 6, 8 and 24 hours postdose. Blood samples were centrifuged and the collected plasma was stored at −80° C. until analysis. Plasma samples were analyzed for Test Article concentrations using an LC/MS/MS method. Briefly, a 50 μL aliquot of each plasma sample was mixed with 100 μL of acetonitrile that contained an internal standard (IS). The mixture was vortexed and centrifuged. Ten (10) μL of the resulting solution was injected onto a reverse-phase C18 column and the resultant peaks detected on a LC/MS/MS equipped with a turbo ionspray ionization source. Sample concentrations below the limit of quantification (BLQ) were treated as zero for PK calculations. Composite PK parameters were estimated from a maximum of two sampling points per mouse and three mice per sampling point and the sparse data option of WinNonlin was used for noncompartmental analysis of the concentration-time data (Phoenix WinNonLin software, version 64; Pharsight, Mountain View, CA). The elimination rate constant (k) was calculated as the absolute value of the slope of the linear regression of logarithm of the concentration versus time for the last three data points of the concentration-time profiles. Apparent elimination half-life (t1/2) values were calculated as ln(2)/k. Area under the concentration-time curve (AUC) values were estimated using linear trapezoidal method. AUCt values were calculated from the dosing time to the last measurable concentration. AUC∞ values were calculated as the sum of the corresponding AUCt and the ratio of the last detectable concentration divided by k. Plasma clearance (CL) was calculated from Dose/AUC∞. Mean resident time (MRT) was estimated by moment analysis. Volume of distribution at steady state (Vss) was calculated from MRT∞×CL. Maximum concentration (Cmax) and time to reach Cmax (tmax) were recorded as observed. Bioavailability was calculated dAUC∞,po/dAUC∞,iv×100% where dAUC was the dose normalized AUC value. Data for compounds tested are provided in Table B. Compounds tested were prepared in accordance with the synthetic procedures described herein.

CYP1A2 = target: T2, CYP1A2 (Homo sapiens, UniProt P05177); assay: Time-dependent inhibition of CYP1A2 in human liver microsomes; assay type: in vitro ADME; conditions: for (% Activity NADPH T0)/(% Activity NADPH T30): fold change
T2 construct: Pooled human microsomes and selective CYP probe substrates were used; from tissue; host or cells: pooled human liver microsomes
T2 sequence (P05177 1-516): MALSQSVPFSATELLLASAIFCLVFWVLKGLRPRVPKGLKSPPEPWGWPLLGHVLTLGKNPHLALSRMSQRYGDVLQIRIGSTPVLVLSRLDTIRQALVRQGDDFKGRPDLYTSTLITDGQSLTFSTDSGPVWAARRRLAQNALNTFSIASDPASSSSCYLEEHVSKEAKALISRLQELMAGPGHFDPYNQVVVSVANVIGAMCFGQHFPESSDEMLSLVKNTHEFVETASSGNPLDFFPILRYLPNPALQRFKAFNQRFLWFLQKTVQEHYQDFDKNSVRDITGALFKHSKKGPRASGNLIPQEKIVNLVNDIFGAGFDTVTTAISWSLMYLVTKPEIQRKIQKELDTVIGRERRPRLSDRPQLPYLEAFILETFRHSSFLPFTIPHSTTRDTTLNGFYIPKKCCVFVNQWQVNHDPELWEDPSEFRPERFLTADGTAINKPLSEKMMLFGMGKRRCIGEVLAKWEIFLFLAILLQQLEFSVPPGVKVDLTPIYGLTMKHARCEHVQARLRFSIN
Protocol: as §1

## C[C@H]1CC[C@H](N2CC(=O)N(Cc3ccc(F)c(Cl)c3)C3(CN(C(N)=O)C3)C2=O)CC1 [Compound 7, 5-(3-chloro-4-fluorobenzyl)-8-((1r,4r)-4-methylcyclohexyl)-6,9-dioxo-2,5,8-triazaspiro[3.5]nonane-2-carboxamide]
CYP2C8; CYP2C8, 25 μM
  (% Activity NADPH T0)/(% Activity NADPH T30): 1.1
CYP2C8; CYP2C8, 50 μM
  (% Activity NADPH T0)/(% Activity NADPH T30): 1.1
CYP2C8; pooled human liver microsomes, CYP2C8, 25 μM, human liver microsomes, after 30 minutes incubation, read-out: % Activity NADPH T30
  activity at 30 min, 25 µM: 64%
CYP2C8; pooled human liver microsomes, CYP2C8, 25 μM, human liver microsomes, time zero, read-out: % Activity NADPH T0
  activity at 0 min, 25 µM: 72%
CYP2C8; pooled human liver microsomes, CYP2C8, 50 μM, human liver microsomes, after 30 minutes incubation, read-out: % Activity NADPH T30
  activity at 30 min, 50 µM: 103%
CYP2C8; pooled human liver microsomes, CYP2C8, 50 μM, human liver microsomes, time zero, read-out: % Activity NADPH T0
  activity at 0 min, 50 µM: 109%
[1]
  clearance: 0.9 L/h/kg
[1]; read-out: Vss
  Vd: 2.95 L/kg
[1]; read-out: t½ (converted)
  half-life: 2.5 h
CYP1A2; CYP1A2, 25 μM
  (% Activity NADPH T0)/(% Activity NADPH T30): 0.9
CYP1A2; CYP1A2, 50 μM
  (% Activity NADPH T0)/(% Activity NADPH T30): 0.8
CYP1A2; pooled human liver microsomes, CYP1A2, 25 μM, human liver microsomes, after 30 minutes incubation, read-out: % Activity NADPH T30
  activity at 30 min, 25 µM: 95%
CYP1A2; pooled human liver microsomes, CYP1A2, 25 μM, human liver microsomes, time zero, read-out: % Activity NADPH T0
  activity at 0 min, 25 µM: 81%
CYP1A2; pooled human liver microsomes, CYP1A2, 50 μM, human liver microsomes, after 30 minutes incubation, read-out: % Activity NADPH T30
  activity at 30 min, 50 µM: 100%
CYP1A2; pooled human liver microsomes, CYP1A2, 50 μM, human liver microsomes, time zero, read-out: % Activity NADPH T0
  activity at 0 min, 50 µM: 79%
